Test results as given in PubChem BioAssay (NCI).
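96-well plates; 48 h exposure; 5 concentrations. Endpoints by linear interpolation between flanking doses. Not reached: highest tested concentration assigned. The concentration for 50% growth inhibition is given as GI50. The concentration for full growth arrest is given as TGI.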

Experiments:
Assay in all cases: NCI-60 cell line screen, 48 h
[1] = system: BT-549 breast
[2] = system: CCRF-CEM leukemia
[3] = system: HCT-15 colon
[4] = system: HOP-62 NSCLC
[5] = system: MALME-3M melanoma
[6] = system: NCI-H23 lung
[7] = system: OVCAR-8 ovarian
[8] = system: RXF 393 renal
[9] = system: SK-OV-3 ovarian
[10] = system: SR leukemia

Row | Compound | GI50 [1] [µM] | TGI [1] [µM] | GI50 [2] [µM] | TGI [2] [µM] | GI50 [3] [µM] | TGI [3] [µM] | GI50 [4] [µM] | TGI [4] [µM] | GI50 [5] [µM] | TGI [5] [µM] | GI50 [6] [µM] | TGI [6] [µM] | GI50 [7] [µM] | TGI [7] [µM] | GI50 [8] [µM] | TGI [8] [µM] | GI50 [9] [µM] | TGI [9] [µM] | GI50 [10] [µM] | TGI [10] [µM]
1 | CNC(=O)c1c(C)oc2cc(Oc3ncnc4cc(OC)c(OC)cc34)ccc12 | > 100 | > 100 | > 100 | > 100 | > 100 | > 100 | > 100 | > 100 | > 100 | > 100 | > 100 | > 100 | > 100 | > 100 | 0.235 | 2.63 | > 100 | > 100 | > 100 | > 100
2 | Cc1c(-c2cnccn2)ssc1=S |  | 68.5 |  | > 77.4 |  | > 100 |  | 92 |  | > 100 |  | > 100 |  | > 100 |  | 80.9 |  | 93 |  | > 100
3 | COc1ccc(Nc2nc3cc(N)cc(N)c3nc2-c2ccccc2)cc1 | 13.4 | 31.9 | 12 | > 100 | 15.3 | 45 | 27.6 | > 100 | 15 | 28.3 | 12.5 | 25.3 | 13.9 | 30.6 | 10.9 | 24.2 | 32.8 | 97.5 | 19.2 | > 100
4 | COc1ccc(C2(Cl)c3ccccc3N(c3ccccc3)c3ccccc32)cc1 | 0.211 | 1.42 | 1.99 | 13.8 | 0.909 | 10.8 | 0.411 | 2.76 | 0.298 | 1.66 | 0.329 | 1.81 | 0.203 | 2.7 | 0.718 | 2.56 | 0.495 | 2.74 | 0.357 | 3.28
5 | COc1cc2c(cc1OC(C)C)[C@H](c1ccc(Cl)cc1)N(c1ccc(N(C)CC3CCC(N4CCN(C)C(=O)C4)CC3)cc1)C(=O)C2 (stereo partly drawn) | 2.18 | 7.7 | 2.61 | 7.48 | 1.95 | 5.79 | 4.19 | 9.64 | 0.09 | 2.74 | 3.34 | 13.2 | 5.86 | 20.3 | 2.66 | 7.92 | 4.05 | 8.86 | 0.123 | 1.97
6 | CNC(=O)c1ccc(N2C(=S)N(c3cnc(C#N)c(C(F)(F)F)c3)C(=O)C23CCC3)cc1F | > 77 | > 100 | > 100 | > 100 | > 100 | > 100 | > 100 | > 100 | 98.3 | > 100 | > 100 | > 100 | > 100 | > 100 | > 44.8 | > 100 | > 100 | > 100 | 51.5 | > 100
7 | CCc1nc(N)nc(N)c1-c1ccc(Cl)c([N+](=O)[O-])c1 |  | > 100 |  | > 32.7 |  | > 100 |  | > 95.5 |  | > 100 |  | > 100 |  | > 100 |  | > 100 |  | > 100 |  | > 26.5
8 | O=C(O)CCNCC(=O)O |  | > 100 |  | > 100 |  | > 100 |  | > 100 |  | > 100 |  | > 100 |  | > 100 |  | > 100 |  | > 100 |  | > 100
9 | Cc1cc2c(C(=O)NC[C@H](C)c3ccccc3)c(O)c(O)cc2c(O)c1-c1c(C)cc2c(C(=O)NC[C@H](C)c3ccccc3)c(O)c(O)cc2c1O | 0.0437 | 2.03 | 0.122 | 11 | 0.208 | 12.6 | 0.301 | 2.15 | 1.78 | 7.23 | 0.0571 | 1.65 | 0.588 | 10.1 | 0.197 | 0.895 | 0.431 | 2.8 | 0.376 | 4.51
10 | Cc1nn(CNc2ccccc2C(F)(F)F)c(=S)n1/N=C/c1cccc2cccnc12 | > 100 | > 100 | 18.9 | > 100 | 24.3 | > 100 | > 100 | > 100 | > 100 | > 100 | > 100 | > 100 | > 100 | > 100 | > 100 | > 100 | > 100 | > 100 | 20.2 | 67.6
11 | CCc1ccc(Oc2c(-c3ccc(OCc4ccc(Cl)cc4)cc3O)n[nH]c2C(F)(F)F)cc1 | 2.04 | 3.95 | 2.92 | 7.22 | 1.6 | 3.21 | 1.87 | 3.48 | 1.78 | 3.47 | 1.67 | 3.35 | 2.52 | 5.87 | 1.65 | 3.16 | 2.43 | 7.01 | 2.78 | 6.92
12 | O=C(O)CSc1n[nH]c(=O)[nH]c1=O |  | > 100 |  | > 100 |  | > 100 |  | > 100 |  | > 100 |  | > 100 |  | > 100 |  | > 100 |  | > 100 |  | > 100
13 | Cc1onc(-c2ccccc2)c1C(=O)N/N=C/c1cc(Cl)cc(Cl)c1O | 12.1 | 49.4 | 1.48 | 14.7 | 2.05 | > 100 | 6.04 | 55.7 | 4.03 | 27.4 | 10.6 | 67.9 | 3.59 | > 100 | 7.72 | > 100 | 7.82 | 50.7 | 3.74 | 25.1
14 | Oc1c(Cl)cc(Cl)c(Cl)c1CNCCNCc1c(O)c(Cl)cc(Cl)c1Cl | 2.67 | 10 | 0.231 | > 50 | 0.282 | 11.6 | 0.894 | 8.3 | 1.11 | 9.67 | 1.42 | 9.08 | 0.911 | 7.72 | 1.41 | 6.74 | 1.48 | 7.7 | 0.622 | > 50
15 | C[C@@H](Oc1cc(-n2cnc3ccc(OC4CCN(C)CC4)cc32)sc1C(N)=O)c1ccccc1Cl | 0.168 | 5.28 | 0.00953 | 4.19 | 0.0827 | 3.55 | 0.0166 | 3.29 | 3.89 | 7.89 | 0.0183 | 5.18 | 0.0197 | 3.36 | 0.0112 | 3.53 | 0.0216 | 2.8 | 0.0103 | 0.532
16 | CC(C)C[C@H](NC(=O)CNC(=O)c1cc(Cl)ccc1Cl)B(O)O | < 0.0145 | 0.137 | 0.0203 | > 100 | 0.0272 |  | 0.0472 | 0.429 | < 0.0115 | 0.035 | 0.0282 |  | 0.0659 | 15.3 | < 0.0138 | 0.0356 | 0.0997 | 8.26 | < 0.0152 | 0.385
17 | CN[C@H]1CN(c2ccc3c(=O)c(C(=O)O)cn(-c4nccs4)c3n2)C[C@@H]1OC | 0.758 | 3.05 | 0.316 | > 22.9 | 1.13 | 7.72 | 0.6 | 3.4 | 0.516 | 2.27 | 0.34 | 2.01 | 0.457 | 3.73 | 1.16 | 3.63 | 1.08 | 5.29 | 0.0508 | 0.777
18 | COc1ccccc1Nc1cc(O)c2c(=O)cc(-c3ccccc3)oc2c1 | 4.96 | 37.2 | 3.57 | > 100 | 1.65 | > 100 | 3.55 | > 100 | 2.13 | 11.9 | 4.22 | 52.6 | 4.65 | > 100 | 1.74 | 5.34 | 3.57 | 17.9 | 0.529 | > 100
